The term IC50 denotes the concentration at which inhibition is half-maximal.

One data set concerns 14-3-3. The data set can be described thus: DARTS in U87MG cells. The conditions noted are these: 5 μM, 2 h, MS and western blot. Format: binding. As to the method: FIG. 5 represents DARTS experiments results as reported in example 6: Proteins obtained from U87MG cells incubated with 5 μM of FC86 or with the medium for 2 h underwent subtilisin-catalyzed digestion.
Current protocols in chemical biology 2011, 3:163-180]. […] The same DARTS experiments were also performed by incubating glioblastoma cell lines (U87MG) with subtoxic amounts of FC86 and data collected confirmed the 14-3-3 as target protein. (FIG. 5).
The identification of putative targets of FC86 was achieved by Drug Affinity Responsive Target Stability (DARTS) experiments. Cancer cells were incubated with a sub-toxic concentration (50 nM for U937 and 5 μM for U87MG) of FC86 for 2 h or with the medium (control cells). After the treatments, treated and control cells were collected and whole protein extracts were prepared by lysing cells in 20 mM Tris-HCl (pH 7.5), 150 mM NaCl, 1 mM EDTA, 1 mM EGTA, 1% NP-40, 1% sodium deoxycholate, 2.5 mM sodium pyrophosphate, 1 mM β-glycerophosphate, 1 mM Na3VO4, 1 μg/ml leupeptin. Protein concentration was determined by the Bradford protein assay using bovine serum albumin as standard. […] Parameters sets were: trypsin cleavage; carbamidomethylation of cysteine as a fixed modification and methionine oxidation as a variable modification; a maximum of two missed cleavages; false discovery rate (FDR), calculated by searching the decoy database, 0.05. […]
Background: Immunoblotting shows a protein as a band on a membrane.

For data set [1], the system named is peripheral blood mononuclear cells (PBMC). The data set can be described thus: Annexin V apoptosis in PBMC from healthy donors (FACS). Type of data set: cell-based. The conditions noted are these: 200 nM, 48 h. As to the method: FC86 was incubated with cells at the concentration of 200 nM for 48 h. Annexin V was detected by flow cytometry (FACS). PBMCs (Peripheral blood mononuclear cells) were not affected by FC86.

A further data set relates to 410 human kinases. Put plainly: ProQinase kinase profiling. Format: biochemical. The following applies: at 1 and 0.1 μM.
Data set [2] relates to eight B-cell lymphoma cell lines. Put plainly: MTT proliferation assay, panel of eight B-cell lymphoma cell lines. Type of data set: cell-based. The protocol:
All the above compounds were tested in vitro for their anticancer activity against a panel of eight B-cell lymphoma cell lines by MTT proliferation assay. The tested cell lines belonging to mantle cell lymphoma (MCL: REC1, Z138), activated B-cell diffuse large B-cell lymphoma (ABC-DLBCL: R11, HBL1, U2932, TMD8), germinal center B-cell diffuse large B-cell lymphoma (GCB-DLBCL: SU-DHL-10, FARAGE) subtypes. In overall, MCL cell lines present Cyclin D1 overexpression, while ABC- and GCB-DLBCL's proliferation is BCR and BCL6/HDACs driven, respectively. At the RNA level, all tested lymphoma cell lines were characterized by an overexpression of 14-3-3 zeta as reported for B-cell lymphomas resistant to chemotherapeutic regimen.

In data set [3] the test system is ATC-derived cell lines (Sw, FRO, 8505c). Put plainly: MTT proliferation assay, three ATC-derived cell lines. Type of data set: cell-based. The following applies: Homo sapiens; three ATC-derived cell lines (Sw, FRO, 8505c), 72 h; read-out: IC50 value after 72 h exposure. The protocol:
(§1) The antiproliferative activity was assessed by MTT proliferation assay (Table III) The anticancer activity was also investigated in a rare and lethal cancer (i.e. anaplastic thyroid cancer) by the use of three ATC-derived cell lines (Sw, FRO, 8505c). Again, the IC50 value after 72 h exposure was in the range of 10 to 50 nM. The same trend was also observed in four melanoma cell lines A2058, M14 (genotype BRAFV600E), SKMEL 197 e MEWO (genotype BRAF wild-type).
On the technique in general: Formazan colour is commonly taken as a measure of viable cells.

In data set [4] the test system is healthy human thyroid cells. Put plainly: Toxicity in healthy human thyroid cells (trypan blue staining). Type of data set: cell-based. The conditions noted are these: 72 h. As to the method: FRTL5 were assayed with MTT, while healthy human thyroid cells by trypan blue staining. The percentage of dead cells, as counted after trypan blue staining, was around 10-15% at the dose of 800 nM of FC86.
To assess the toxicity FC86 was evaluated against a primary healthy human thyroid cell line at concentrations ranging from 3 nM to 800 nM for 72 h (FIG. 3). Data collected reveal that FC86 is not toxic for healthy human thyroid cells at concentration […] 400 nM. Such a concentration is 20× fold higher than IC50 detected in tumour cell lines.

In a further data set the test system is A2058. Put plainly: Antiproliferative activity, melanoma cell line. Format: cell-based. The following applies: Homo sapiens; melanoma A2058 (BRAFV600E); read-out: IC50 (95% confidence interval). The protocol:
as §1

In the next data set the test system is MEWO. Put plainly: Antiproliferative activity, melanoma cell line. Type of data set: cell-based. The conditions noted are these: Homo sapiens; melanoma MEWO (BRAF wild-type); read-out: IC50 (95% confidence interval). The protocol: as §1
The next data set concerns SKMEL 197. The data set can be described thus: Antiproliferative activity, melanoma cell line. Format: cell-based. The following applies: melanoma SKMEL 197 (BRAF wild-type); read-out: IC50 (95% confidence interval). The protocol:
as §1

The test system of a further data set is M14. The data set can be described thus: Antiproliferative activity, melanoma cell line. Format: cell-based. The following applies: Homo sapiens; melanoma M14 (BRAFV600E); read-out: IC50 (95% confidence interval). The protocol:
as §1

Entries after “also recorded” stand apart in the source; their conditions may differ.

Consider `Cc1ccc(S(=O)(=O)Nc2ccc3c(c2)/C(=C/c2cccs2)C(=O)N3)cc1` [FC86, N-[(3Z)-2-oxo-3-(thiophene-2-ylmethylidene)-2,3-dihydro-1H-indol-5-yl]-4-methylbenzenesulfonamide], for which, in the data set on 14-3-3, the “resistance of 14-3-3 to subtilisin proteolysis (DARTS)” value is on record as “significant increment of resistance to proteolysis”. Moreover, the “apoptosis (Annexin V) in PBMC” value in [1] is recorded as “did not detect any sign of apoptosis; also recorded: not affected”. The “activity against 410 human kinases” value in the data set on 410 human kinases is on record as “lack of activity against any of them”. Also, the IC50 is less than 1000 nM in data set [2] (B-cell, read-out: IC50 in all eight lymphoma cell lines); 10 to 50 nM in data set [3]; 28.6 nM in the data set with A2058; 57 nM with MEWO; 20.7 nM in the data set with SKMEL 197; 14.1 nM in the data set on M14. Also, in data set [2] (eight different lymphoma cell lines), the “IC50 in eight different lymphoma cell lines” value is on record as “nanomolar range”. Further, in [4] (at concentration higher than 400 nM), the “toxicity for healthy human thyroid cells” value is “not toxic”. In addition, in data set [4] (healthy human thyroid cells, 800 nM), the “percentage of dead cells (trypan blue staining)” value is listed as 10-15%.

These data come from patent publication US20240350458A1, “14-3-3 PROTEIN MODULATORS AS ANTITUMOR AGENTS” (priority 2021, published 2024).
